Where only a bound is given, the exact number is not on record here.

In assay [1] the target is T1, human recombinant TDO2 enzyme (Homo sapiens, UniProt P48775).
T1 construct: made in house
Nature of the assay: Assay for TDO2 enzymatic activity determination. Conditions: human recombinant TDO2, L-Trp 1 mM, room temperature one hour, kynurenine absorbance at 480 nm. Format: biochemical. On the procedure:
To measure the TDO2 activity, the reaction mixture contained (final concentrations) potassium phosphate buffer (50 mM, pH 7.5), ascorbic acid (0.25 M), methylene blue (0.125 μM), catalase (40 units/mL, from bovine liver, Sigma), and human recombinant TDO2 enzyme (prepared as described in Dolusic et al. J. Med. Chem.; 2011, 54, 5320-5334; 0.9 μg) without or with the compounds of the present invention embodiments at the indicated concentrations (total volume 112.5 μL). The reaction was initiated by the addition of 37.5 μL of L-Trp (final concentration 1 mM) at room temperature. The reaction was conducted at room temperature during one hour and stopped by the addition of 30 μL of 30% (w/v) trichloroacetic acid.
To convert N-formylkynurenine into kynurenine, the reaction mixture was incubated at 65° C. for 30 min. Then 150 μL of the reaction mixture was mixed with 120 μL, of 2.5% (w/v) 4-(dimethylamino)-benzaldehyde in acetic acid and incubated for 5 min at room temperature. Kynurenine concentrations were determined by measuring the absorbance at 480 nm. A standard curve was made with pure kynurenine. The TDO activity was measured as described above using ten serial concentrations of certain embodiments of the compounds of the present invention. Data were fitted using the Prism software (GraphPad Software, Inc.).

The target of assay [2] is T2, murine mastocytoma P815 cells overexpressing hTDO2 (Homo sapiens, UniProt P48775).
T2 construct: expressed in transfected cells; host or cells: murine mastocytoma P815 cells
T2 sequence (P48775 whole entry): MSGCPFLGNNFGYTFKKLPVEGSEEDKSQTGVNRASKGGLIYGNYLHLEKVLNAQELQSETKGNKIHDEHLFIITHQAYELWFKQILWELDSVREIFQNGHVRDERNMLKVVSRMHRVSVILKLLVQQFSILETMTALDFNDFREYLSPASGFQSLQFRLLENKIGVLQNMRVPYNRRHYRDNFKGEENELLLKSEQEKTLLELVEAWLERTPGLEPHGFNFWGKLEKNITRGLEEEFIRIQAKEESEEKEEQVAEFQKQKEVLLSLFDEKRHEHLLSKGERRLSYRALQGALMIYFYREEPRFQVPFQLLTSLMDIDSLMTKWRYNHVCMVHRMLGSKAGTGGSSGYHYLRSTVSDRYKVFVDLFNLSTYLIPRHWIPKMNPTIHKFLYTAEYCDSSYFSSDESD
In words: Cellular assay for TDO2 activity determination. Format: cell-based. The conditions noted are these: P815 cells overexpressing hTDO2, overnight incubation at 37° C., kynurenine absorbance at 480 nm. On the procedure: The assay was performed in 96-well flat bottom plates seeded with murine mastocytoma P815 cells overexpressing hTDO2 (prepared as described in Pilotte et al., PNAS, 2012, 109(7), 2497-2502), at a concentration of 5×10^4 cells/well in a final volume of 200 μL. To determine TDO or IDO activity, the cells were incubated overnight at 37° C. at 5% CO2 in IMDM (Invitrogen) supplemented with 2% FBS and 2% penicillin/streptomycin in the presence of the compounds of the present invention, at different concentrations.
The plates were then centrifuged 5 min at 1000 rpm, and 100 μL of the supernatant were collected in a conical plate, 30 uL of TCA 30% were added and a further centrifugated at 3000×g for 10 minutes. 100 μL of the supernatant were collected in a flat bottomed plate and 100 μL of 2% (w/v) 4-(dimethylamino)-benzaldehyde in acetic acid and incubated for 5 min at room temperature. Kynurenine concentrations were determined by measuring the absorbance at 480 nm. A standard curve was made with pure kynurenine. The TDO activity was measured as described above using ten serial concentrations of the compounds of the present invention. Data were fitted using the Prism software (GraphPad Software, Inc.).

T1 sequence (P48775 whole entry): as above

Take `CC(Cn1cc(-c2c[nH]c3cc(F)ccc23)cn1)C(N)=O` (single isomer, unassigned) [Example 36, 3-(4-(6-fluoro-1H-indol-3-yl)-1H-pyrazol-1-yl)-2-methylpropanamide]: the IC50 – broadly, the concentration needed to halve the response being measured – in assay [1] is 1 to 10 µM; in assay [2], less than 1 µM.

Consider `Cc1c(-c2c[nH]c3cc(F)ccc23)cnn1C` (single isomer, unassigned) [Example 74, 3-(1,5-dimethyl-1H-pyrazol-4-yl)-6-fluoro-1H-indole], for which the values for the IC50 in assay [1] and in assay [2] were 1 to 10 µM and less than 1 µM, respectively.

With `Fc1ccc2c(-c3cnn(C4CNC4)c3)c[nH]c2c1` [Example 2, 3-(1-(azetidin-3-yl)-1H-pyrazol-4-yl)-6-fluoro-1H-indole], the IC50 in assay [1] and in assay [2] was less than 1 µM throughout.

`CC(=O)N1CC(n2cc(-c3c[nH]c4cc(F)ccc34)cn2)C1` [Example 3, 1-(3-(4-(6-fluoro-1H-indol-3-yl)-1H-pyrazol-1-yl)azetidin-1-yl)ethanone]: the IC50 in assay [1] fell in the range of 1 to 10 µM.

Turning to `NC(=O)N1CC(n2cc(-c3c[nH]c4cc(F)ccc34)cn2)C1` [Example 4, 3-(4-(6-fluoro-1H-indol-3-yl)-1H-pyrazol-1-yl)azetidine-1-carboxamide], the IC50 in assay [1] was 1 to 10 µM.

As for `CNC(=O)N1CC(n2cc(-c3c[nH]c4cc(F)ccc34)cn2)C1` [Example 5, 3-(4-(6-fluoro-1H-indol-3-yl)-1H-pyrazol-1-yl)-N-methylazetidine-1-carboxamide], the IC50 in assay [1] fell in the range of 1 to 10 µM.

For `Fc1ccc2c(-c3cnn(CC4CNC4)c3)c[nH]c2c1` [Example 6, 3-(1-(azetidin-3-ylmethyl)-1H-pyrazol-4-yl)-6-fluoro-1H-indole], the IC50 in assay [1] and in assay [2] was less than 1 µM each time.

`CN(C)CCNC(=O)CCn1cc(-c2c[nH]c3cc(F)ccc23)cn1` [Example 13, N-(2-(dimethylamino)ethyl)-3-(4-(6-fluoro-1H-indol-3-yl)-1H-pyrazol-1-yl)propanamide]: the IC50 in assay [1] fell in the range of 1 to 10 µM.

`CNC(=O)CCn1cc(-c2c[nH]c3cc(F)ccc23)cn1` [Example 14, 3-(4-(6-fluoro-1H-indol-3-yl)-1H-pyrazol-1-yl)-N-methylpropanamide]: the IC50 in assay [1] is 1 to 10 µM.

For `CN(C)C(=O)CCn1cc(-c2c[nH]c3cc(F)ccc23)cn1` [Example 15, 3-(4-(6-fluoro-1H-indol-3-yl)-1H-pyrazol-1-yl)-N,N-dimethylpropanamide], the IC50 in assay [1] was 1 to 10 µM.

`O=C(O)CCn1cc(-c2c[nH]c3cc(F)ccc23)cn1` [Example 16, 3-(4-(6-fluoro-1H-indol-3-yl)-1H-pyrazol-1-yl)propanoic acid]: the IC50 in assay [1] lay within 1 to 10 µM.

For `O=C(O)CCn1cc(-c2c[nH]c3cc(F)c(F)cc23)cn1` [Example 17, 3-(4-(5,6-difluoro-1H-indol-3-yl)-1H-pyrazol-1-yl)propanoic acid], the IC50 in assay [1] lay within 10 to 100 µM.

With `O=C1NCCN1CCn1cc(-c2c[nH]c3cc(F)ccc23)cn1` [Example 18, 1-(2-(4-(6-fluoro-1H-indol-3-yl)-1H-pyrazol-1-yl)ethyl)imidazolidin-2-one], the IC50 in assay [1] is 1 to 10 µM.

As for `CN1CCN(CCn2cc(-c3c[nH]c4cc(F)ccc34)cn2)CC1` [Example 19, 6-fluoro-3-(1-(2-(4-methylpiperazin-1-yl)ethyl)-1H-pyrazol-4-yl)-1H-indole], the IC50 in assay [1] is 1 to 10 µM; in assay [2] it was less than 1 µM.

On to `Fc1ccc2c(-c3cnn(CCN4CCOCC4)c3)c[nH]c2c1` [Example 20, 4-(2-(4-(6-fluoro-1H-indol-3-yl)-1H-pyrazol-1-yl)ethyl)morpholine], for which the IC50 in assay [1] and in assay [2] was 1 to 10 µM throughout.

On to `NC(=O)NCCn1cc(-c2c[nH]c3cc(F)ccc23)cn1` [Example 22, 1-(2-(4-(6-fluoro-1H-indol-3-yl)-1H-pyrazol-1-yl)ethyl)urea], for which the IC50 in assay [1] and in assay [2] was 1 to 10 µM each time.

On to `CNC(=O)NCCn1cc(-c2c[nH]c3cc(F)ccc23)cn1` [Example 23, 1-(2-(4-(6-fluoro-1H-indol-3-yl)-1H-pyrazol-1-yl)ethyl)-3-methylurea], for which the IC50 in assay [1] is 1 to 10 µM.

Turning to `CS(=O)(=O)NCCn1cc(-c2c[nH]c3cc(F)ccc23)cn1` [Example 25, N-(2-(4-(6-fluoro-1H-indol-3-yl)-1H-pyrazol-1-yl)ethyl)methanesulfonamide], the IC50 in assay [1] is 1 to 10 µM; in assay [2], less than 1 µM.

On to `CC(=O)N1CCN(CCn2cc(-c3c[nH]c4cc(F)ccc34)cn2)CC1` [Example 28, 1-(4-(2-(4-(6-fluoro-1H-indol-3-yl)-1H-pyrazol-1-yl)ethyl)piperazin-1-yl)ethanone], for which the IC50 in assay [1] lay in the range of 10 to 100 µM.

As for `O=C1CCCN1CCn1cc(-c2c[nH]c3cc(F)ccc23)cn1` [Example 30, 1-(2-(4-(6-fluoro-1H-indol-3-yl)-1H-pyrazol-1-yl)ethyl)pyrrolidin-2-one], the IC50 in assay [1] was in the range of 1 to 10 µM.

In the case of `O=C(O)Cn1cc(-c2c[nH]c3cc(F)ccc23)cn1` [Example 41, 2-(4-(6-fluoro-1H-indol-3-yl)-1H-pyrazol-1-yl)acetic acid], the IC50 in assay [1] was in the range of 10 to 100 µM.

As for `COC(=O)Cn1cc(-c2c[nH]c3cc(F)ccc23)cn1` [Example 42, methyl 2-(4-(6-fluoro-1H-indol-3-yl)-1H-pyrazol-1-yl)acetate], the IC50 in assay [1] lay within 1 to 10 µM.

As to `Fc1ccc2c(-c3cnn(CC4CCN(CC(F)(F)F)CC4)c3)c[nH]c2c1` [Example 45, 6-fluoro-3-(1-((1-(2,2,2-trifluoroethyl)piperidin-4-yl)methyl)-1H-pyrazol-4-yl)-1H-indole], in assay [1], the IC50 was in the range of 1 to 10 µM.

As to `O=C(O)CN1CCC(Cn2cc(-c3c[nH]c4cc(F)ccc34)cn2)CC1` [Example 49, 2-(4-((4-(6-fluoro-1H-indol-3-yl)-1H-pyrazol-1-yl)methyl)piperidin-1-yl)acetic acid], in assay [1], the IC50 fell in the range of 1 to 10 µM.

Turning to `O=C(O)CCC(=O)N1CCC(Cn2cc(-c3c[nH]c4cc(F)ccc34)cn2)CC1` [Example 50, 4-(4-((4-(6-fluoro-1H-indol-3-yl)-1H-pyrazol-1-yl)methyl)piperidin-1-yl)-4-oxobutanoic acid], the IC50 in assay [1] fell in the range of 10 to 100 µM.

Take `CNC(=O)[C@H]1C[C@@H](n2cc(-c3c[nH]c4cc(F)ccc34)cn2)C1` [Example 63, (1S,3S)-3-(4-(6-fluoro-1H-indol-3-yl)-1H-pyrazol-1-yl)-N-methylcyclobutanecarboxamide]: in assay [1], the IC50 lay in the range of 1 to 10 µM.

Consider `CNC(=O)[C@H]1C[C@H](n2cc(-c3c[nH]c4cc(F)ccc34)cn2)C1` [Example 64, (1R,3R)-3-(4-(6-fluoro-1H-indol-3-yl)-1H-pyrazol-1-yl)-N-methylcyclobutanecarboxamide], for which, in assay [1], the IC50 fell in the range of 1 to 10 µM.

For the compound `O=C(O)[C@H]1C[C@@H](n2cc(-c3c[nH]c4cc(F)ccc34)cn2)C1` [Example 65, (1S,3S)-3-(4-(6-fluoro-1H-indol-3-yl)-1H-pyrazol-1-yl)cyclobutanecarboxylic acid], the IC50 in assay [1] lay within 10 to 100 µM.

As for `O=C(O)[C@H]1C[C@H](n2cc(-c3c[nH]c4cc(F)ccc34)cn2)C1` [Example 66, (1R,3R)-3-(4-(6-fluoro-1H-indol-3-yl)-1H-pyrazol-1-yl)cyclobutanecarboxylic acid], the IC50 in assay [1] was in the range of 10 to 100 µM.

With `FC(F)(F)c1ccc2c(-c3cn[nH]c3)c[nH]c2c1` [Example 72, 3-(1H-pyrazol-4-yl)-6-(trifluoromethyl)-1H-indole], the 50% inhibitory concentration (IC50) in assay [1] lay in the range of 10 to 100 µM.

For `OCCN1CCC(n2cc(-c3c[nH]c4cc(F)ccc34)cn2)CC1` [Example 79, 2-(4-(4-(6-fluoro-1H-indol-3-yl)-1H-pyrazol-1-yl)piperidin-1-yl)ethanol], in assay [1], the IC50 was 1 to 10 µM.

For the compound `COCCC(=O)N1CCC(n2cc(-c3c[nH]c4cc(F)ccc34)cn2)CC1` [Example 81, 1-(4-(4-(6-fluoro-1H-indol-3-yl)-1H-pyrazol-1-yl)piperidin-1-yl)-3-methoxypropan-1-one], in assay [1], the IC50 lay within 1 to 10 µM.

Regarding `CCC(=O)N1CCC(n2cc(-c3c[nH]c4cc(F)ccc34)cn2)CC1` [Example 82, 1-(4-(4-(6-fluoro-1H-indol-3-yl)-1H-pyrazol-1-yl)piperidin-1-yl)propan-1-one], the IC50 in assay [1] lay within 1 to 10 µM.

`Fc1ccc2c(-c3cnn(-c4ccc(Cl)nn4)c3)c[nH]c2c1` [Example 108, 3-(1-(6-chloropyridazin-3-yl)-1H-pyrazol-4-yl)-6-fluoro-1H-indole]: the IC50 in assay [1] was 10 to 100 µM.

Values taken from patent US9126984B2, “4-(indol-3-yl)-pyrazole derivatives, pharmaceutical compositions and methods for use” (ITEOS THERAPEUTICS, priority 2013, dated 2015).
